Test results taken from BindingDB's records for doi:10.1016/s0960-894x(02)00639-x (Monash University (Parkville Campus), 2002).
pIC50, pKd: −log10 of the molar value.

Key:
[1] = Inhibitory concentration against [3H]DPCPX binding to Adenosine A1 receptor from DDT1 MF2 cells
[2] = Equilibrium dissociation constant for [3H]DPCPX binding to Adenosine A1 receptor from DDT1 MF2 cell membranes
[3] = as above; remark: listed apart in the source

| SMILES | pIC50 [1] | pKd [2] | pIC50 [3] |
| --- | --- | --- | --- |
| CCCn1c(=O)c2[nH]c(C3CC4CCC3C4)nc2n(CCCCC(=O)c2ccc(S(=O)(=O)F)cc2)c1=O (stereo not given) [4-[5-(8-Bicyclo[2.2.1]hept-2-yl-2,6-dioxo-1-propyl-1,2,6,7-tetrahydro-purin-3-yl)-pentanoyl]-benzenesulfonyl fluoride] | 8.41 | 9.28 | – |
| CCCn1c(=O)c2[nH]c(C3CCCCC3)nc2n(CCCCC(=O)c2ccc(S(=O)(=O)F)cc2)c1=O [4-[5-(8-Cyclohexyl-2,6-dioxo-1-propyl-1,2,6,7-tetrahydro-purin-3-yl)-pentanoyl]-benzenesulfonyl fluoride] | 7.77 | – | – |
| CCCn1c(=O)c2[nH]c(C3CCCC3)nc2n(CCCCC(=O)c2ccc(S(=O)(=O)F)cc2)c1=O [4-[5-(8-Cyclopentyl-2,6-dioxo-1-propyl-1,2,6,7-tetrahydro-purin-3-yl)-pentanoyl]-benzenesulfonyl fluoride] | – | 9.28 | 8.06 |
